1 compound from ChEMBL document CHEMBL5678818, “Discovery of potent SOS1 inhibitors that block RAS activation via disruption of the RAS-SOS1 interaction” (Proc Natl Acad Sci U S A, 2019) can be followed below.

Experiment [1] concerns the target Cyclin-dependent kinase 15 (Homo sapiens) (UniProt Q96Q40). Description: Inhibition of PFTAIRE2 (unknown origin) assessed as residual activity at 100 nM by KINOMEscan analysis relative to control.
Experiment [2] has as its target T1, Serine/threonine-protein kinase BRSK2 (Homo sapiens) (UniProt Q8IWQ3).
T1 sequence (whole entry): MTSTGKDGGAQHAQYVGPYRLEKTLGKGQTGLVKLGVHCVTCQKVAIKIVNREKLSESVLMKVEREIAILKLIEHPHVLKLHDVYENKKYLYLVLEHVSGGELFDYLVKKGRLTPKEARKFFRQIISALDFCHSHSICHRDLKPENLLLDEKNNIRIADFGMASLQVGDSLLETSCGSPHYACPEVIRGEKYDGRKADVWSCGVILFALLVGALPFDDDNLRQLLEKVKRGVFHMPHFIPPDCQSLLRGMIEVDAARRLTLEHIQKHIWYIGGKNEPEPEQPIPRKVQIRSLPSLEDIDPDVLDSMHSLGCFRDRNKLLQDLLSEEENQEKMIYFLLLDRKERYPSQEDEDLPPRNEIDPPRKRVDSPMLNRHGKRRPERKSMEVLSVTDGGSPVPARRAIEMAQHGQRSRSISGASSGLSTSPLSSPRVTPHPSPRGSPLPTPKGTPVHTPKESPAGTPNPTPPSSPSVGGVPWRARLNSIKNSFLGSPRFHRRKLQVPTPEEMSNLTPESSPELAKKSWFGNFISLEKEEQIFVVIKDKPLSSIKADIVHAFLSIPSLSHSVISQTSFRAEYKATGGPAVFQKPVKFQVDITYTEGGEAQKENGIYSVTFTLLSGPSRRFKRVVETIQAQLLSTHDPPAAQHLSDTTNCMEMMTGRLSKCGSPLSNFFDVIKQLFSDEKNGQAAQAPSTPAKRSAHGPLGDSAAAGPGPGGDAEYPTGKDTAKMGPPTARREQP
Description: Inhibition of BRSK2 (unknown origin) assessed as residual activity at 100 nM by KINOMEscan analysis relative to control.

Experiment [3] has as its target T2, Cytoplasmic tyrosine-protein kinase BMX (Homo sapiens) (UniProt P51813).
T2 sequence (whole entry): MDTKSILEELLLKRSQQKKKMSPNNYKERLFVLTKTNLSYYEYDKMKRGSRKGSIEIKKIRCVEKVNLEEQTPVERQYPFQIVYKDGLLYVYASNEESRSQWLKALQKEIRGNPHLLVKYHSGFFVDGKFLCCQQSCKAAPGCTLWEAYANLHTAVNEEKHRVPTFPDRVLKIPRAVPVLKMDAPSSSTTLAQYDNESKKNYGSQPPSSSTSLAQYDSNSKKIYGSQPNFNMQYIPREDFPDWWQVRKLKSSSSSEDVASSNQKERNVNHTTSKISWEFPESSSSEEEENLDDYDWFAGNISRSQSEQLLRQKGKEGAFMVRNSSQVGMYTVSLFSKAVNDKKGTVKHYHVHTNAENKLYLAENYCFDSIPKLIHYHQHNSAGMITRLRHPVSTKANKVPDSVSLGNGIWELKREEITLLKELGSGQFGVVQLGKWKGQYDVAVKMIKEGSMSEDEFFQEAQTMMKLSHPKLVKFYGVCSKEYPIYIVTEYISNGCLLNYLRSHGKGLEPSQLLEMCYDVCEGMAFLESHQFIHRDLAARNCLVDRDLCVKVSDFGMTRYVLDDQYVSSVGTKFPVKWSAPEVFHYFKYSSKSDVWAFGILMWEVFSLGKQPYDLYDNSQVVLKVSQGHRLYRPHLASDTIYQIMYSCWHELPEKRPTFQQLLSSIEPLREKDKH
As to the kind of experiment: Inhibition of BMX (unknown origin) assessed as residual activity at 100 nM by KINOMEscan analysis relative to control.

Experiment [4] addresses Hepatocyte growth factor receptor (Homo sapiens) (UniProt P08581). Description: Inhibition of MET (unknown origin) assessed as residual activity at 100 nM by KINOMEscan analysis relative to control.
Experiment [5] deals with Casein kinase I isoform delta (Homo sapiens) (UniProt P48730). As to the kind of experiment: Inhibition of CSNK1D (unknown origin) assessed as residual activity at 100 nM by KINOMEscan analysis relative to control.
The target in experiment [6] is T3, Serine/threonine-protein kinase DCLK3 (Homo sapiens) (UniProt Q9C098).
T3 sequence (whole entry): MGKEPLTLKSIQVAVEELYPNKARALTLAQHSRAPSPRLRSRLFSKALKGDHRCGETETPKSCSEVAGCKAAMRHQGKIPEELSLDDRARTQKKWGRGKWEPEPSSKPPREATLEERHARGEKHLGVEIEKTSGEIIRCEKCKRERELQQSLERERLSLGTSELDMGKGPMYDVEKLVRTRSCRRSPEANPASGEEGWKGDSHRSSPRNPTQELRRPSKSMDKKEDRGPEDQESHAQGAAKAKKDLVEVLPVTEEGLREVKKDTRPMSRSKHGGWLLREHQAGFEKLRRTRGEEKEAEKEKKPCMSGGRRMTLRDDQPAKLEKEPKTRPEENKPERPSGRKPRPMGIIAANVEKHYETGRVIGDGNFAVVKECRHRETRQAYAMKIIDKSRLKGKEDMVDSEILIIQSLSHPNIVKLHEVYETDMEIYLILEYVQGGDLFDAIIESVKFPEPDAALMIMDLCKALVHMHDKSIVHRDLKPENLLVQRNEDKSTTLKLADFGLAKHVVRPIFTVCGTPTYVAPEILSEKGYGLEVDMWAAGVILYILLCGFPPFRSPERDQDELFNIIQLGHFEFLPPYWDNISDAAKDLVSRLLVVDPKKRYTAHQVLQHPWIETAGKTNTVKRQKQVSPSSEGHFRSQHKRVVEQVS
Description: Inhibition of DCAMKL3 (unknown origin) assessed as residual activity at 100 nM by KINOMEscan analysis relative to control.

Experiment [7] has as its target Cyclin-dependent kinase 16 (Homo sapiens) (UniProt Q00536). As to the kind of experiment: Inhibition of PCTK1 (unknown origin) assessed as residual activity at 100 nM by KINOMEscan analysis relative to control.

Chain of Casein kinase I isoform delta (Homo sapiens) (P48730 whole entry, looked up, canonical isoform): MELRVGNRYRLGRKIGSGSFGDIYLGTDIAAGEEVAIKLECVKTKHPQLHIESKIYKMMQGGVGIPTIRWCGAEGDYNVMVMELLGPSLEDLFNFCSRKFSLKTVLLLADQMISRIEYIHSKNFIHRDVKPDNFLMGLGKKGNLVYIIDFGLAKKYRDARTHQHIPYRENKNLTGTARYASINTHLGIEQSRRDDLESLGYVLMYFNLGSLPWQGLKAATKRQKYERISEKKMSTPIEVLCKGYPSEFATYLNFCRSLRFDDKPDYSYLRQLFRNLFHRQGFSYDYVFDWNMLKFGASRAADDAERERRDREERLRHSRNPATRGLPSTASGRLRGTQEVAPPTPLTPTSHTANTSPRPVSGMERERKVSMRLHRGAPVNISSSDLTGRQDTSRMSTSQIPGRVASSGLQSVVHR
Chain of Hepatocyte growth factor receptor (Homo sapiens) (P08581 whole entry, canonical isoform): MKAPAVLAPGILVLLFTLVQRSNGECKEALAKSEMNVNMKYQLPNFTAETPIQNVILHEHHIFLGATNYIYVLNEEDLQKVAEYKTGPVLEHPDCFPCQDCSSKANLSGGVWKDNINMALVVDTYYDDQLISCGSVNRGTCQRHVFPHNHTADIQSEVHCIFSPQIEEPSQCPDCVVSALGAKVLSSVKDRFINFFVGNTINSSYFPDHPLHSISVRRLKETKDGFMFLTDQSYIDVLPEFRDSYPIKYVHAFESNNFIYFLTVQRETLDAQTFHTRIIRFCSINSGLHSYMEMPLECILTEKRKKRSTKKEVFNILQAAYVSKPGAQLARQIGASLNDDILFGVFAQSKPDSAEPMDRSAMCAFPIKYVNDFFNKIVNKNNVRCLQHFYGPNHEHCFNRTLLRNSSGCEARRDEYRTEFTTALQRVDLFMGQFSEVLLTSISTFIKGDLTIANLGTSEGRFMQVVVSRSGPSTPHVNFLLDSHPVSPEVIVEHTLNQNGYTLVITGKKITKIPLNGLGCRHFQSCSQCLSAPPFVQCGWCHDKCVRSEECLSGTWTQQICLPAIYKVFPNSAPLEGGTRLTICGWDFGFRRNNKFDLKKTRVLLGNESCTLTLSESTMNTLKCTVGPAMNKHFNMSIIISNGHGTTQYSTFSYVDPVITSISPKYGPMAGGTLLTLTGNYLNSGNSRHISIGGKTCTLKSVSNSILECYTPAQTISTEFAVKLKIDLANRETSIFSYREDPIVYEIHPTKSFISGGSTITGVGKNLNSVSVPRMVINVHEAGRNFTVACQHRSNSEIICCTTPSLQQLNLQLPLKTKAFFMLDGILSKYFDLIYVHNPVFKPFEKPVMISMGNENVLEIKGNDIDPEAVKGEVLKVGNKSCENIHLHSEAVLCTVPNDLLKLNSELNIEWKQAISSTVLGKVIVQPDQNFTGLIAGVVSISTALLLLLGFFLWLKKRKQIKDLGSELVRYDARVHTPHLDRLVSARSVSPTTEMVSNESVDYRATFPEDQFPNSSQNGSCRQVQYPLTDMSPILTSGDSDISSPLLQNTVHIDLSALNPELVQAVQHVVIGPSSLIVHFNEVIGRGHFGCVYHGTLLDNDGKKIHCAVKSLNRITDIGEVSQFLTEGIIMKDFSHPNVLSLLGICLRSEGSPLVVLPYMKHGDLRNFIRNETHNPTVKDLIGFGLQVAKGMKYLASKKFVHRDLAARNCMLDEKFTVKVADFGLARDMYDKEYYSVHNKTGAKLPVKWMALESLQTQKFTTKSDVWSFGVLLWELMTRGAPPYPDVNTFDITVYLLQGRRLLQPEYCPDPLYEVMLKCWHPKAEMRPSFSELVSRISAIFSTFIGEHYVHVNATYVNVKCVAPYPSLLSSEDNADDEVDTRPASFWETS
Chain of Cyclin-dependent kinase 15 (Homo sapiens) (Q96Q40 whole entry): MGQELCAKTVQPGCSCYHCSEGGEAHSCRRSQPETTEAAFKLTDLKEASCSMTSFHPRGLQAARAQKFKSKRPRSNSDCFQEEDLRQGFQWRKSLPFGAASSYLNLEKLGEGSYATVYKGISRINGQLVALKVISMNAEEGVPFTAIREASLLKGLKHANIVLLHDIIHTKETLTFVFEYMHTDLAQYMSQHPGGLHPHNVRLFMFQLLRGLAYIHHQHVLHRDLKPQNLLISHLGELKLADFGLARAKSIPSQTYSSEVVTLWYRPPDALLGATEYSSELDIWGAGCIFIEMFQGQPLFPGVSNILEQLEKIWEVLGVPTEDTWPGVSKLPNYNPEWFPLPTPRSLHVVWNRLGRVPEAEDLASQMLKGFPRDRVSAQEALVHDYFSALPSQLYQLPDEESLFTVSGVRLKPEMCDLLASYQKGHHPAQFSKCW
Chain of Cyclin-dependent kinase 16 (Homo sapiens) (Q00536 whole entry): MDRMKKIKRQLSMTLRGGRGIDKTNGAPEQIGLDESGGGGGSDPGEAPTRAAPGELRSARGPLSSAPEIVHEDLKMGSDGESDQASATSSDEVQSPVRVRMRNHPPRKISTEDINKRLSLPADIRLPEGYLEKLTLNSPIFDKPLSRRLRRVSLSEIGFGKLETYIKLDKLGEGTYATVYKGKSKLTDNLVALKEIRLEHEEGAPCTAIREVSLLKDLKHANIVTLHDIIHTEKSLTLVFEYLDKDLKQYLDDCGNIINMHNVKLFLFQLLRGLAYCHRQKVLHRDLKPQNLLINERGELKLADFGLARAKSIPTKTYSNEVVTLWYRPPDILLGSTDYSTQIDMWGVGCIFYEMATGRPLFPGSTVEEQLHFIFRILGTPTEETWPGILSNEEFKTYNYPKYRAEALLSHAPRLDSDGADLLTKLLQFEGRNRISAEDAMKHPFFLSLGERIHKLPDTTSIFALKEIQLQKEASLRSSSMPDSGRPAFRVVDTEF

Consider `COc1cc2ncnc(N[C@H](C)c3cccc4ccccc34)c2cc1OC`, for which the Activity was found to be 100% in experiment [1]; 100% in experiment [2]; 79% in experiment [3]; 100% in experiment [4]; 97% in experiment [5]; 84% in experiment [6]. The Activity in experiment [7] is 96%.
